Test results reported in patent publication US12384753B2, “17-beta-hydroxysteroid dehydrogenase type 13 inhibitors and methods of use thereof” (Enanta Pharmaceuticals, Inc., priority 2021, dated 2025).

Molecular target: Recombinant human HSD17B13 (Homo sapiens (Human), UniProt Q7Z5P4)
Assay: HSD17B13 rapid-fire mass spectrometry assay (RF/MS assay)
Format: biochemical
Conditions: inhibition of HSD17B13; LTB4 10 μM, NAD+ 0.5 mM, RT 3 h; IC50 ranges A-E
Excerpt: HSD17B13 rapid-fire mass spectrometry assay (RF/MS assay). Recombinant human HSD17B13 was expressed and purified from sf9 cells at Charles River Labs (Saffron Walden, UK). Leukotriene B4 (Catalog #71160-24-2) and 12-oxoleukotriene B4 (Catalog #20140) were purchased from Cayman Chemicals (Ann Arbor, Michigan.). NAD+ (Catalog #N8285), BSA (Catalog #A7030), DMSO (Catalog #D2650), and Tween-20 (Catalog #11332465001) were purchased from Sigma (St. Louis, MO). Formic acid (Catalog #28905) was from ThermoFisher Scientific and 384 deep well PP microplates (Catalog #784261) were from Greiner Bio-One. In a typical IC50 assay performed in a 384w PP microplate, test compounds (0-100 μM) were incubated with HSD17B13 (80 nM), LTB4 (10 μM), and NAD^+ (0.5 mM) in 10 μL assay buffer (20 mM Tris (pH 7.5), BSA (0.005%), and Tween-20 (0.01%)) at RT for 3 h. The assays were quenched by adding 20 μL of 0.15% aqueous formic acid and the plates were frozen at −80° C. RF/MS analysis was performed at PureHoney Technologies (Billerica, MA) on a RapidFire RF300 system (Agilent Technologies, Inc.) coupled to an API 4000 triple quadrupole mass spectrometer (Sciex) equipped with Agilent RapidFire cartridge type A (C4). The mobile phase was 0.09% formic acid and 0.01% trifluoracetic acid in water (Buffer A) and 0.09% formic acid and 0.01% trifluoracetic acid in 80% aqueous acetonitrile (Buffer B). The RapidFire method conditions were the following: 250 ms aspirate, 3000 ms load/desalt, 4000 ms elute, and 500 ms re-equilibrate. RF-MS/MS was performed in negative polarity (−4500 V), the source temperature was 650° C., and gas 1 and gas 2 settings for nitrogen were set to 50. The curtain gas and collision gas were also nitrogen and were set to 20 and 12, respectively. Leukotriene B4 (335.3) and 12-oxoLeukotriene B4 (333.3) SRM transitions were optimized with Discovery Quant software and extracted ion counts for these analytes were determined.
Data Analysis. HSD17B13 enzyme activity was measured as percent conversion of extracted ion counts and normalized to high and low controls to determine percent residual activity at various concentrations of test compounds. Data were fitted to normalized activity (variable slope) versus concentration fit in GraphPad Prism 7 to determine IC50. All experiments were run in duplicates.
By using above method, the inhibition of HSD17B13 was evaluated for the compounds of Formula (I). IC50 ranges are as follows: A=IC50<0.100 μM; B=0.100 μM<IC50<0.500 μM; C=0.500 μM<IC50<1 μM; D=1 μM<IC50<100 μM; E=IC50>100 μM

Recombinant human HSD17B13, sequence (Q7Z5P4 20-300): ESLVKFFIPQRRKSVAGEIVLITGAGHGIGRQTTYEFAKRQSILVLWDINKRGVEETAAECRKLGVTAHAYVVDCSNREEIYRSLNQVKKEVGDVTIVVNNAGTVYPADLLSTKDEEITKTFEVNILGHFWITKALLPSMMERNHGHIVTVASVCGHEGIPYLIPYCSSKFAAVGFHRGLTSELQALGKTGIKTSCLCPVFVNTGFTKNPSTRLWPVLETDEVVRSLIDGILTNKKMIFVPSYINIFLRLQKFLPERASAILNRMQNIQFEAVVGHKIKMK

SMILES | IC50 [nM]
COc1cc(C(=O)O)ccc1NS(=O)(=O)c1cnc(-c2ccc(-c3ccc(C(F)(F)F)c(C(F)(F)F)c3)cc2)s1 [Example 710] | 100 to 500
COc1cc(C(=O)O)ccc1NS(=O)(=O)c1csc(N2CCCC(Cc3ccc(C)cc3)C2)n1 (stereo not drawn) [Example 274] | 500 to 1000
COc1cc(C(=O)O)ccc1NS(=O)(=O)c1csc(N2CCN(c3nccs3)CC2)n1 [Example 264] | 1000 to 100000
COc1cc(C(=O)O)c(F)cc1NS(=O)(=O)c1csc(-c2ccc([C@H]3CC[C@@H](C(F)(F)F)CC3)cc2C(F)(F)F)n1 [Example 606] | < 100
COc1cc(C(=O)O)ccc1NS(=O)(=O)c1csc(C#Cc2ccncc2)n1 [Example 216] | 100 to 500
COc1cc(C(=O)O)ccc1NS(=O)(=O)c1csc(C#Cc2cccc(OC(F)(F)F)c2)n1 [Example 239] | < 100
COc1cc(C(=O)O)c(F)cc1NS(=O)(=O)c1csc(C#Cc2ccc(O)cc2)n1 [Example 229] | < 100
COc1cc(C(=O)O)ccc1NS(=O)(=O)c1csc(-c2ccc(-c3ccccc3)nc2)n1 [Example 299] | 1000 to 100000
COc1cc(C(=O)O)ccc1NS(=O)(=O)c1csc(C#Cc2ccc(C(N)=O)cc2)n1 [Example 224] | 1000 to 100000
COc1cc(C(=O)O)ccc1NS(=O)(=O)c1csc(N2CC=C(c3ccccc3)C2)n1 [Example 268] | 100 to 500
COc1cc(C(=O)O)ccc1NS(=O)(=O)N1Cc2nc(C3=CCC(F)(F)CC3)sc2C1 [Example 358] | 100 to 500
COc1cc(C(=O)O)cc(F)c1NS(=O)(=O)c1csc(-c2ccc(C3CCC(C)(C)CC3)cc2C(F)(F)F)n1 [Example 671] | < 100
COc1cc(C(=O)O)ccc1NS(=O)(=O)N1CCC(c2ccccn2)CC1 [Example 311] | 1000 to 100000
COc1cc(C(=O)O)c(F)cc1NS(=O)(=O)c1csc(-c2ccc(C3CCC(C)(C)CC3)c(OC)c2F)n1 [Example 548] | < 100
COc1cc(C(=O)O)ccc1NS(=O)(=O)c1ccc(-c2cccc(C(F)(F)F)c2)s1 [Example 212] | < 100
COc1cc(C(=O)O)ccc1NS(=O)(=O)c1coc(-c2ccc(C3=CCC(C)(C)CC3)cc2)n1 [Example 464] | 100 to 500
COc1cc(C(=O)O)c(F)cc1NS(=O)(=O)c1csc(-c2ccc([C@H]3CC[C@H](C(C)(C)C)CC3)cc2C(F)(F)F)n1 [Example 780] | < 100
COc1cc(C(=O)O)ccc1NS(=O)(=O)c1cnc(-c2ccc(-c3ccc4c(c3)CCCC4)cc2)s1 [Example 427] | 100 to 500
O=C(O)c1ccc(NS(=O)(=O)c2cnc(-c3ccc(F)cc3)s2)c(F)c1 [Example 28] | 100 to 500
COc1cc(C(=O)O)c(F)cc1NS(=O)(=O)c1csc(-c2ccc([C@H]3CC[C@@H](C(C)C)CC3)c(F)c2C)n1 [Example 805] | < 100
COc1cc(C(=O)O)ccc1NS(=O)(=O)c1csc(N2CCC(c3ccccc3)CC2)n1 [Example 256] | 1000 to 100000
COc1cc(C(=O)O)c(F)cc1NS(=O)(=O)c1ccc2sc(-c3ccc(C4CCCCC4)cc3C(F)(F)F)nc2c1 [Example 703] | 500 to 1000
COc1cc(C(=O)O)ccc1NS(=O)(=O)c1ccc(-c2csc(C)n2)cc1 [Example 298] | 1000 to 100000
COc1cc(C(=O)O)ccc1NS(=O)(=O)c1csc(C#Cc2ccc(OC(F)(F)F)cc2)n1 [Example 226] | 100 to 500
COc1cc(C(=O)O)c(F)cc1NS(=O)(=O)c1csc(-c2ccc(C3CCC(C)(C)CC3)nc2)n1 [Example 553] | 100 to 500
COc1cc(C(=O)O)ccc1NS(=O)(=O)c1csc(-c2c(F)ccc3ccccc23)n1 [Example 153] | 100 to 500
CC[C@H]1CC[C@@H](c2ccc(-c3nc(S(=O)(=O)Nc4ccc(C(=O)O)cc4OC)co3)cc2)CC1 [Example 481] | 100 to 500

SMILES | IC50 [nM]
COc1cc(C(=O)O)ccc1NS(=O)(=O)c1csc(-c2ccc(C#Cc3ccc(F)cc3)cc2)n1 [Example 486] | 500 to 1000
COc1cc(C(=O)O)c(F)cc1NS(=O)(=O)c1csc(-c2ccc(C3=CCC(C)(C)CC3)c(F)c2C(F)F)n1 [Example 582] | < 100
COc1cc(C(=O)O)ccc1NS(=O)(=O)c1cccc(-c2ccc(C3CCCCC3)cc2)c1 [Example 472] | 100 to 500
COc1cc(C(=O)O)ccc1NS(=O)(=O)c1csc(-c2ccc(C3CCC(F)(F)CC3)cc2)n1 [Example 371] | 100 to 500
COc1cc(C(=O)O)c(F)cc1NS(=O)(=O)c1cnc(-c2ccc([C@H]3CC[C@@H](C)CC3)cc2)s1 [Example 626] | 100 to 500
O=C(O)c1ccc(NS(=O)(=O)c2cnc(-c3ccccc3)s2)c(O)c1 [Example 160] | 100 to 500
CCCOc1c(C2CCC(C)(C)CC2)ccc(-c2nc(S(=O)(=O)Nc3cc(F)c(C(=O)O)cc3OC)cs2)c1F [Example 579] | 100 to 500
COc1cc(C(=O)O)c(F)cc1NS(=O)(=O)c1csc(-c2ccc(C3=CCC(C(C)(C)C)CC3)cc2)n1 (stereo not drawn) [Example 747] | < 100
O=C(O)c1ccc(NS(=O)(=O)c2csc(-c3ccc(O)cc3)n2)cc1 [Example 63] | 500 to 1000
COc1cc(C(=O)O)ccc1NS(=O)(=O)c1csc(-c2ccc(C3CCC(C(C)(C)C)CC3)cc2)n1 (stereo not drawn) [Example 353, 4-((2-(4-(4-(tert-butyl)cyclohexyl)phenyl)thiazole)-4-sulfonamido)-3-methoxybenzoic acid] | < 100
COc1cc2c(cc1C(=O)O)CN(S(=O)(=O)c1ccc(F)cc1)CC2 [Example 5, 2-((4-fluorophenyl)sulfonyl)-6-methoxy-1,2,3,4-tetrahydroisoquinoline-7-carboxylic acid] | > 100000
COc1cc(C(=O)O)ccc1NS(=O)(=O)c1cccc(-c2ccc(C3CCC(F)(F)CC3)cc2)c1F [Example 476] | 100 to 500
COc1nc(C(=O)O)cnc1NS(=O)(=O)c1cnc(-c2ccc(F)cc2)s1 [Example 84] | 1000 to 100000
COc1cc(C(=O)O)ccc1NS(=O)(=O)c1cccc(-c2ccccc2)c1 [Example 145] | 1000 to 100000
COc1cc(C(=O)O)ccc1NS(=O)(=O)c1ccc(-c2ccc(C3(O)CCC(C)(C)CC3)cc2)s1 [Example 430, 4-((5-(4-(1-hydroxy-4,4-dimethylcyclohexyl)phenyl)thiophene)-2-sulfonamido)-3-methoxybenzoic acid] | 100 to 500
COc1cc(C(=O)O)ccc1NS(=O)(=O)c1csc(N2CCCC(c3ccc(F)cc3)C2)n1 (stereo not drawn) [Example 292] | 1000 to 100000
COc1cc(C(=O)O)ccc1NS(=O)(=O)N1CCC(c2ccccc2)CC1 [Example 310] | 1000 to 100000
COc1cc(C(=O)O)c(F)cc1NS(=O)(=O)c1csc(-c2ccc(-c3ccc(C45CC6C[C@H](C4)C[C@H](C6)C5)cc3)c(OC)c2)n1 [Example 743] | 100 to 500
COc1cc(C(=O)O)ccc1NS(=O)(=O)c1ccc(-c2ccc(-c3ccccc3)cc2)s1 [Example 198] | 500 to 1000
COc1ccc(C#Cc2nc(S(=O)(=O)Nc3ccc(C(=O)O)cc3OC)cs2)c(C(C)C)c1 [Example 399, 4-((2-((2-isopropyl-4-methoxyphenyl)ethynyl)thiazole)-4-sulfonamido)-3-methoxybenzoic acid] | < 100
COc1cc(C(=O)O)c(F)cc1NS(=O)(=O)c1csc(-c2ccc(C3=CCC(C)(C)CC3)cc2C(F)(F)F)n1 [Example 522] | < 100
COc1cc(C(=O)O)ccc1NS(=O)(=O)N1Cc2nc(-c3ccc4c(c3)OCCO4)sc2C1 [Example 384] | 100 to 500
COc1cc(C(=O)O)ccc1NS(=O)(=O)c1ccc(-c2ccc(C3CCCCC3)cc2)cc1OC(F)(F)F [Example 325] | 1000 to 100000
COc1cc(C(=O)O)ccc1NS(=O)(=O)c1csc(-c2ccc(C3CCCCC3)cc2)n1 [Example 281, 4-((2-(4-cyclohexylphenyl)thiazole)-4-sulfonamido)-3-methoxybenzoic acid] | 100 to 500
COc1cc(C(=O)O)ccc1NS(=O)(=O)c1csc(-c2cccc(C3CCCCC3)c2)n1 [Example 366] | 100 to 500
COc1cc(C(=O)O)ccc1NS(=O)(=O)N1Cc2ccc(-c3ccc(C4CCCCC4)cc3)cc2C1 [Example 364] | 500 to 1000
COc1nc2c(cc1C(=O)O)CN(S(=O)(=O)c1ccc(F)cc1)CC2 [Example 8, 6-((4-fluorophenyl)sulfonyl)-2-methoxy-5,6,7,8-tetrahydro-1,6-naphthyridine-3-carboxylic acid] | > 100000
